Data on five molecules can be found in PMC7892445 (Frontiers in Molecular Neuroscience, 2021).

Assay [1] addresses T1, Chicken α9α10 nAChR (Gallus gallus, UniProt Q9I8C7+Q9PTS8).
T1 construct: expressed in transfected cells; host or cells: Xenopus laevis oocytes (cRNA injection, 1:1 molar ratio)
The experiment in a line: Two-electrode voltage clamp, recombinant heteromeric receptor in X. laevis oocytes. The assay is classed as cell-based. The following applies: for Emax: read-out: Efficacy (maximal response as % of that elicited by 1 mM ACh), Chicken α9α10. As for the experimental part:
(§1) For expression studies, rat and chicken α9 and α10 nAChR subunits subcloned into a modified pGEMHE vector were used. Capped cRNAs were in vitro transcribed from linearized plasmid DNA templates using RiboMAX™ Large Scale RNA Production System (Promega, Madison, WI, USA). The maintenance of X. laevis and the preparation and cRNA injection of stage V and VI oocytes have been described in detail elsewhere (Verbitsky et al., [2000]). Typically, oocytes were injected with 50 nl of RNase-free water containing 0.01–1.0 ng of cRNA (at a 1:1 molar ratio for heteromeric receptors) and maintained in Barth’s solution [in mM: NaCl 88, Ca(NO3)2 0.33, CaCl2 0.41, KCl 1, MgSO4 0.82, NaHCO3 2.4, HEPES 10] at 18°C. Electrophysiological recordings were performed 2–6 days after cRNA injection under a two-electrode voltage clamp with an Oocyte Clamp OC-725B or C amplifier (Warner Instruments Corporation, Hamden, CT, USA). Recordings were filtered at a corner frequency of 10 Hz using a 900 BT Tunable Active Filter (Frequency Devices Inc., Ottawa, IL, USA). Data acquisition was performed using a Patch Panel PP-50 LAB/1 interphase (Warner Instruments Corp., Hamden, CT, USA) at a rate of 10 points per second. Both voltage and current electrodes were filled with 3 M KCl and had resistances of ~1 MΩ. Data were analyzed using Clampfit from the pClamp 6.1 software. During electrophysiological recordings, oocytes were continuously superfused (~15 ml/min) with normal frog saline composed of: 115 mM NaCl, 2.5 mM KCl, 1.8 mM CaCl2, and 10 mM HEPES buffer, pH 7.2. Drugs were added to the perfusion solution for the application. The membrane potential was clamped to −70 mV. To minimize activation of the endogenous Ca^2+ sensitive chloride current (Elgoyhen et al., [2001]), all experiments were performed in oocytes incubated with the Ca^2+ chelator 1,2-bis (2-aminophenoxy) ethane-N,N,N’,N’-tetraacetic acid-acetoxymethyl ester (BAPTA-AM, 100 μM) for 3 h before electrophysiological recordings. […] The mean and SEM of peak current responses are presented. Agonist concentration-response curves were iteratively fitted, using Prism 6 software (GraphPad Software Inc., La Jolla, CA, USA), with the equation: I/Imax = A^nh/(A^nH + EC50^nH), where I is the peak inward current evoked by agonist at concentration A; Imax is the current evoked by the concentration of agonist eliciting a maximal response; EC50 is the concentration of agonist inducing half-maximal current response, and nH is the Hill coefficient. An equation of the same form was used to analyze the concentration dependence of antagonist induced blockage.

The target of assay [2] is T2, Rat α9α10 nAChR (Rattus norvegicus, UniProt P43144+Q9JLB5).
T2 construct: expressed in transfected cells; host or cells: Xenopus laevis oocytes (cRNA injection, 1:1 molar ratio)
The description is as above. The settings on record: for Efficacy (maximal response as % of that elicited by 1 mM ACh) / EC50: Rat α9α10; for Efficacy (maximal response as % of that elicited by 1 mM ACh) / EC50 / Emax: mean ± SEM; for EC50: −70 mV, BAPTA-AM treated oocytes; for Emax: read-out: Efficacy (maximal response as % of that elicited by 1 mM ACh), Rat α9α10. The assay is classed as cell-based. As for the experimental part:
as §1

The target of assay [3] is T3, rat α9α10x chimeric receptor (Rattus norvegicus, UniProt P43144+Q9JLB5, A264D/A292P/A308T/A312F/A328P/E329N/F253L/F325Y/H335A/I246L/I275V/I289S/I304M/I310V/I323L/L250F/L309M/M279L/M319L/N295S/R331H/S258A/S293A/V320I/Y260H).
T3 construct: expressed in transfected cells; host or cells: Xenopus laevis oocytes (cRNA injection)
The experiment in a line: Two-electrode voltage clamp, chimeric receptor in X. laevis oocytes. The assay is classed as cell-based. On the procedure:
as §1
The α10W55T mutant subunit was produced as previously described (Boffi et al., [2017]) using Quick change XL II kit (Stratagene, La Jolla, CA, USA). […]
(In general: Two-electrode voltage clamp is typically applied to oocytes expressing channels or transporters.)

Assay [4] concerns the target Chicken α9 homomeric nAChR (Gallus gallus, UniProt Q9PTS8). Kind of assay: Two-electrode voltage clamp, recombinant homomeric receptor in X. laevis oocytes. Type of assay: cell-based. The following applies: for EC50: mean ± SEM. On the procedure:
as §1

For assay [5], the target named is T4, Rat α9 homomeric nAChR (Rattus norvegicus, UniProt P43144).
T4 construct: expressed in transfected cells; host or cells: Xenopus laevis oocytes (cRNA injection)
Described as above. The assay is classed as cell-based. On the procedure: as §1

The target of assay [6] is Chicken α10 homomeric nAChR (Gallus gallus, UniProt Q9I8C7). Described as above. Type of assay: cell-based. The following applies: for EC50: mean ± SEM. On the procedure:
as §1

In assay [7] the target is T1, Chicken α9α10 nAChR. More on the design: method as in Elgoyhen et al., 2001; Lipovsek et al., 2012. The settings on record: previous work, ref Elgoyhen et al., 2001, Lipovsek et al., 2012; cited from earlier work.
In assay [8] the target is rat α9–chicken α10 hybrid receptor (Rα9-Cα10) (UniProt P43144+Q9I8C7). The experiment in a line: Two-electrode voltage clamp, hybrid receptor in X. laevis oocytes. The following applies: mean ± SEM. Type of assay: cell-based. On the procedure:
as §1

Assay [9] relates to mouse outer hair cells. Kind of assay: tissue or blood. The following applies: read-out: Efficacy (maximum response normalized to maximal peak response to 3 mM ACh). As for the experimental part: (§2) Chicken auditory organ (basilar papilla) was dissected from the temporal bone of embryonic chickens (white Leghorns either sex, 17–20 days in ovo). The tegmentum vasculosum was removed and the tectorial membrane was stripped from the basilar papilla with most of the short hair cells (SHCs) still attached. This “tectorial preparation” was then inverted and secured in the recording chamber by spring clips. SHCs were recorded in a region 25–50% the distance from the apical (lagenar) to the basal tip of the basilar papilla of the chicken. Apical turns of the organ of Corti were excised from BALB/c mice of either sex between postnatal day 11 (P11) and P13 (around the onset of hearing in altricial rodents). At this age, outer hair cells (OHCs) are already innervated by the MOC fibers (Pujol et al., [1998]; Simmons, [2002]). The tectorial membrane was removed and the organ of Corti was positioned under an insect pin affixed to a cover-slip with a drop of Sylgard.
(§3) Basilar papilla and cochlear preparations were placed into a chamber on the stage of an upright microscope (Olympus BX51WI, Center Valley, PA, USA) at room temperature and used within 2 h. Cells were visualized on a monitor via a water immersion objective (60× magnification), differential interference contrast optics, and a CCD camera (Andor iXon 885, Belfast, UK). […]

In assay [10] the test system is chicken short hair cells. Kind of assay: tissue or blood. The following applies: Gallus gallus, read-out: Efficacy (maximum response normalized to maximal peak response to 3 mM ACh). As for the experimental part:
as §2, §3

Assay [11] addresses rat α9α10W55T receptor (Rα9-Rα10W55T) (Rattus norvegicus, UniProt P43144+Q9JLB5, W81T). The experiment in a line: Two-electrode voltage clamp, mutant receptor in X. laevis oocytes. The assay is classed as cell-based. The settings on record: mean ± SEM. As for the experimental part: For expression studies, rat and chicken α9 and α10 nAChR subunits subcloned into a modified pGEMHE vector were used. Capped cRNAs were in vitro transcribed from linearized plasmid DNA templates using RiboMAX™ Large Scale RNA Production System (Promega, Madison, WI, USA). The maintenance of X. laevis and the preparation and cRNA injection of stage V and VI oocytes have been described in detail elsewhere (Verbitsky et al., [2000]). Typically, oocytes were injected with 50 nl of RNase-free water containing 0.01–1.0 ng of cRNA (at a 1:1 molar ratio for heteromeric receptors) and maintained in Barth’s solution [in mM: NaCl 88, Ca(NO3)2 0.33, CaCl2 0.41, KCl 1, MgSO4 0.82, NaHCO3 2.4, HEPES 10] at 18°C. Electrophysiological recordings were performed 2–6 days after cRNA injection under a two-electrode voltage clamp with an Oocyte Clamp OC-725B or C amplifier (Warner Instruments Corporation, Hamden, CT, USA). Recordings were filtered at a corner frequency of 10 Hz using a 900 BT Tunable Active Filter (Frequency Devices Inc., Ottawa, IL, USA). Data acquisition was performed using a Patch Panel PP-50 LAB/1 interphase (Warner Instruments Corp., Hamden, CT, USA) at a rate of 10 points per second. Both voltage and current electrodes were filled with 3 M KCl and had resistances of ~1 MΩ. Data were analyzed using Clampfit from the pClamp 6.1 software. […]

Assay [12] has as its target chicken α9–rat α10 hybrid receptor (Cα9-Rα10) (UniProt Q9JLB5+Q9PTS8). The experiment in a line: Two-electrode voltage clamp, hybrid receptor in X. laevis oocytes. The assay is classed as cell-based. The following applies: mean ± SEM. On the procedure: as §1
Where [13] appears, read: Chicken α9α10, mean ± SEM, read-out: EC50.
Setting [14] is: α9α10x chimeric receptor, mean ± SEM.

SMILES strings stand for the structures. Where two headings read alike, the source gives them in different places.

Chicken α10 homomeric nAChR, sequence (Q9I8C7 27-452): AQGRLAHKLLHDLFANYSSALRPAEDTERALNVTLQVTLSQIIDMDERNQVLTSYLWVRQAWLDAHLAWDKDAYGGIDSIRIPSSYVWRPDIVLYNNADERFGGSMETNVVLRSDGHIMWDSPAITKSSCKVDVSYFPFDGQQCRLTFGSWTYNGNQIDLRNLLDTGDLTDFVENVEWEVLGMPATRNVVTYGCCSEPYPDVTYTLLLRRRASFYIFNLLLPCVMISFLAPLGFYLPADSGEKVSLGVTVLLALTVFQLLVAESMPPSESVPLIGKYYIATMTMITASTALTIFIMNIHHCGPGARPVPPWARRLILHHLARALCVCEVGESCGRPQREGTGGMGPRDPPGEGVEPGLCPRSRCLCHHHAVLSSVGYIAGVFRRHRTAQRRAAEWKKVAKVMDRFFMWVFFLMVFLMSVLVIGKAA
T1 sequence (Q9PTS8 28-484): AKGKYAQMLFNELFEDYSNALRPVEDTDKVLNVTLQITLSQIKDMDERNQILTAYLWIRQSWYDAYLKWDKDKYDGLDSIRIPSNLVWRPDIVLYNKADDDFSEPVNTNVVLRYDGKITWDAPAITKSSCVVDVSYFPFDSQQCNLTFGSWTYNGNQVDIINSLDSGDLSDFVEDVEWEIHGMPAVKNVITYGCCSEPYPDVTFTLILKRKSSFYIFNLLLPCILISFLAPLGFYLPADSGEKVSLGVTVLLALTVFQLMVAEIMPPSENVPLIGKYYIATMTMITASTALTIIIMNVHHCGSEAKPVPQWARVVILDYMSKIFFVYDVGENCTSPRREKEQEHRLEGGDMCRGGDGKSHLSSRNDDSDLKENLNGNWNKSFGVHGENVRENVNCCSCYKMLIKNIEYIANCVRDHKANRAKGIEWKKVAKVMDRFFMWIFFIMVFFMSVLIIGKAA
T1 sequence (Q9I8C7 27-452): as the sequence (Q9I8C7 27-452) above
chicken α9–rat α10 hybrid receptor (Cα9-Rα10), sequence (Q9PTS8 28-484): as the sequence (Q9PTS8 28-484) above
chicken α9–rat α10 hybrid receptor (Cα9-Rα10), sequence (Q9JLB5 25-447): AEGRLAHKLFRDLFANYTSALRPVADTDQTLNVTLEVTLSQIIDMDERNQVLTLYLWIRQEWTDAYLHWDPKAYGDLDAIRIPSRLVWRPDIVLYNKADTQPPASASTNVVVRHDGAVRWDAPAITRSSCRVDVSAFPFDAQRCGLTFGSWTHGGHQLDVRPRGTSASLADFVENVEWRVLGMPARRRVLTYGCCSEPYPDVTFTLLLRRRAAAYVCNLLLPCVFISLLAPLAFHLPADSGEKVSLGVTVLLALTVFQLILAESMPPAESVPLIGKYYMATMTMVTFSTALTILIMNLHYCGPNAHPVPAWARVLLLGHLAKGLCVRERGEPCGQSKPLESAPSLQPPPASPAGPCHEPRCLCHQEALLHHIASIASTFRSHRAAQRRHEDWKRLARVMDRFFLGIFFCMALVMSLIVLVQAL
Chicken α9 homomeric nAChR, sequence (Q9PTS8 28-484): as the sequence (Q9PTS8 28-484) above
rat α9–chicken α10 hybrid receptor (Rα9-Cα10), sequence (P43144 26-479): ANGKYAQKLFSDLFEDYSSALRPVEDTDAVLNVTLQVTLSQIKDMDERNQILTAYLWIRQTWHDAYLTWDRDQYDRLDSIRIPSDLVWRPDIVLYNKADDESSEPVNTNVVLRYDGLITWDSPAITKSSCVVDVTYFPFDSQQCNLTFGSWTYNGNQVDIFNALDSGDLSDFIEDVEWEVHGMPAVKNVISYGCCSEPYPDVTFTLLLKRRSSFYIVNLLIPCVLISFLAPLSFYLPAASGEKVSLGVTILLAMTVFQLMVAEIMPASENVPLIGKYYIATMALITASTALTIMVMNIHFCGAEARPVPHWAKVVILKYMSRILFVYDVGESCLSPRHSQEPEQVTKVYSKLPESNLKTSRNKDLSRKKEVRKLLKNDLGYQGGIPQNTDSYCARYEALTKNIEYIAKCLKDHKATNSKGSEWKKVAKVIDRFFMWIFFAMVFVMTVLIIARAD
rat α9–chicken α10 hybrid receptor (Rα9-Cα10), sequence (Q9I8C7 27-452): as the sequence (Q9I8C7 27-452) above
T3 sequence (P43144 26-479, stated change not applied): as the sequence (P43144 26-479) above
T3 sequence (P43144+Q9JLB5 fused with the stated changes): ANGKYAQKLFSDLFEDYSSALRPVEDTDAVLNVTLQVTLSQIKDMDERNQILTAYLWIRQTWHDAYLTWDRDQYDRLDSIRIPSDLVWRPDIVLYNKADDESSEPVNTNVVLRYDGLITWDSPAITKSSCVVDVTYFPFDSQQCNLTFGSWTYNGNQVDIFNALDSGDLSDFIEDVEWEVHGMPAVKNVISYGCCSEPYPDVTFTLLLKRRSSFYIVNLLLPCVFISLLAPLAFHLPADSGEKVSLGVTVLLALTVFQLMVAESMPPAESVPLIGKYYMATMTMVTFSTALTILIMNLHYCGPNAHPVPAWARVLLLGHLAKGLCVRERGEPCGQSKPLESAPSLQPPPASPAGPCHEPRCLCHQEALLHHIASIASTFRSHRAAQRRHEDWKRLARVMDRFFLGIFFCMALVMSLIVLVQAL
T2 sequence (P43144 26-479): as the sequence (P43144 26-479) above
T2 sequence (Q9JLB5 25-447): as the sequence (Q9JLB5 25-447) above
T4 sequence (P43144 26-479): as the sequence (P43144 26-479) above
rat α9α10W55T receptor (Rα9-Rα10W55T), sequence (P43144 26-479): as above
rat α9α10W55T receptor (Rα9-Rα10W55T), sequence (Q9JLB5 25-447 W81T): as the sequence (Q9JLB5 25-447) above, with W57T counted along it

With `C[N+](C)(C)CCOC(N)=O` [Carbachol, carbachol], the “Efficacy (maximal response as % of that elicited by 1 mM ACh)” value in assay [1] (Chicken α9α10, mean ± SEM) is listed as 89.8 ± 7.0 (6) %; in [2], 75.5 ± 5.2 (5) %. Besides, the EC50 – broadly, the concentration giving half of the maximal effect – in assay [1] (setting [13]) was found to be 150 ± 15 µM; in [2], 159 ± 31.5 µM. Moreover, the “Potency relative to ACh (times lower)” value in assay [1] (chicken α9α10, carbachol EC50 vs ACh) is reported as around 12 times; in [2] (rat α9α10, carbachol EC50 vs ACh), around 12 times. Also, the Emax in assay [1] (mean ± SEM) came to 89 ± 7%; in [2], 75 ± 5%.
As for `CC(=O)OCC[N+](C)(C)C` [ACh, acetylcholine], the EC50 in assay [1] was 13.1 ± 2.6 µM; in assay [4], 12.9 ± 1.4 µM; in assay [6], 2.2 ± 0.7 µM; in assay [7] it was around 10 µM; in assay [8] (Rα9-Cα10 hybrid), 11.6 ± 2.9 µM. In addition, the “Imax (maximal ACh response)” value in assay [3] (rat α9 co-expressed with α10x) was determined as 269 ± 103 nA; in [5] (homomeric rat α9) it was 14 ± 2 nA.
As to `C[N+](C)(C)CCO` [Choline, choline], the concentration giving a half-maximal response (EC50) is 200 ± 16 µM in assay [1] (setting [13]); 541 ± 62 µM in [2]; 160 ± 7.6 µM in assay [3] (setting [14]); 280 ± 20 µM in [4]; 188 ± 40 µM in [5] (Rat α9, −70 mV, BAPTA-AM treated oocytes, mean ± SEM); 23.2 ± 8.3 µM in [6]. Further, the EC50 in assay [12] (Cα9-Rα10 hybrid) was found to be 333 ± 66.2 µM; in [8] (Rα9-Cα10 hybrid), 148 ± 12.1 µM. Also, the Emax was determined as 88 ± 6.7% in assay [1] (mean ± SEM); 37 ± 3% in assay [2]; 50 ± 9% in [9]; 90 ± 6% in assay [10]; 74 ± 1% in [3] (read-out: Efficacy (maximal response as % of maximal ACh response), α9α10x chimeric receptor, mean ± SEM); 73.7 ± 5.9% in assay [4] (read-out: Efficacy (maximal response as % of that elicited by 1 mM ACh), mean ± SEM). The Emax in [5] (read-out: Efficacy (maximal response as % of that elicited by 1 mM ACh), Rat α9, mean ± SEM) worked out at 87 ± 6%; in assay [6] (read-out: Efficacy (maximal response as % of maximal ACh response), mean ± SEM), 99.4 ± 9.5%; in [12] (read-out: Efficacy (maximal response as % of maximal ACh response), Cα9-Rα10 hybrid) it was 51 ± 6%; in assay [8] (read-out: Efficacy (maximal response as % of responses to 1 mM ACh), Rα9-Cα10 hybrid) it was 86 ± 2%. The “Efficacy (maximal response as % of that elicited by 1 mM ACh)” value in assay [2] was 37.5 ± 2.5 (9) %; in [2] (listed as choline), 38 ± 3%; in assay [5] (Rat α9, mean ± SEM), 87.3 ± 6.0 (4) %. Further, the “Efficacy (maximal response as % of maximal ACh response)” value in [3] (setting [14]) is recorded as 74.3 ± 1.0 (5) %; in assay [12] (Cα9-Rα10 hybrid), 51.2 ± 6 (5) %. Besides, the entries for the “Efficacy (responses to 10 mM choline as % of those elicited by 1 mM ACh)” value in assay [11] and in [11] (listed as choline) were 7.4 ± 1.9 (5) % and 7 ± 2%, respectively. Also, in [8] (Rα9-Cα10 hybrid), the “Efficacy (maximal response as % of responses to 1 mM ACh)” value was 86.4 ± 2.1 (6) %.
Consider `C[N+]1(C)CCN(c2ccccc2)CC1` [DMPP], for which the “Efficacy (maximal response as % of that elicited by 1 mM ACh)” value in [1] (Chicken α9α10, mean ± SEM) is given as 32.6 ± 2.9 (5) %; in [2], 0.6 ± 0.3 (6) %. The EC50 amounted to 9.8 ± 0.5 µM in assay [1] (setting [13]) and 21.5 ± 4 µM in assay [2].
In the case of `CN1CCC[C@H]1c1cccnc1` [Nicotine, nicotine], the IC50 (usually the concentration that inhibits the measured activity by half) in assay [1] turned out to be 39.4 ± 3.4 µM. Moreover, the “Agonist activity (currents elicited)” value in [1] (oocytes expressing chicken α9α10) and in assay [2] (oocytes expressing rat α9α10) was “did not elicit currents” each time.
